The source of these data is patent US7915223B2, “Antimicrobial agents” (priority 2004, dated 2011).

Series [1] can be described thus: Hydrophobicity estimation by reversed-phase HPLC (percent acetonitrile at elution). It counts as physicochemical. The following applies: percent of acetonitrile at which the polymer was eluted on reversed-phase C18 HPLC. How it is done: HPLC chromatograms were performed on C18 columns (Vydak, 250 mm×4.6 or 10 mm) using a linear gradient of acetonitrile in water (1% per minute), both solvents contained 0.1% trifluoroacetic acid. The purified polymers were subjected to mass spectrometry (ZQ Waters) to confirm their composition and stored as a lyophilized powder at −20° C. Prior to being tested, fresh solutions were prepared in water, mixed by vortex, solubilized by ultrasound, centrifuged and then diluted in the appropriate medium.
In order to estimate the hydrophobicity of each polymer, the polymer was eluted with a linear gradient of acetonitrile (1% per minute) on an HPLC reversed-phase C18 column, and the percent of acetonitrile at which the polymer was eluted was used for hydrophobicity estimation (see, “ACN (%)” in Table 3 below).

Series [2] in a line: Hemolysis assay. In kind it is cell-based, human. The following applies: lytic concentration inducing 50% lysis of human red blood cells in PBS, read-out: LC50 (the source's name). How it is done: (§1) The polymer's membranolytic potential was determined against human red blood cells (RBC) in phosphate buffer solution (PBS).
(§2) Alternatively, a 10% hematocrit was used and hemolysis was determined after one hour incubation.

Series [3] concerns microorganisms in the saliva of healthy human volunteers. The following applies: fresh human saliva 1:1 with 100 μM agent, pH 5.
Procedure: A solution of the saliva with no anti-bacterial agent served as a control. […] Each of the solutions was spread over a LA plate, and the plated saliva samples were incubated overnight at 37° C. without aeration. The colonies were enumerated and counted to determine the microbicidal effect of the drug. The values of viable colony forming units (CFU) were determined as described above.
Series [4] has as its system human red blood cells (RBC). The experiment in a line: Hemolysis assay. In kind it is cell-based. The following applies: human RBC, 10% hematocrit, 1 hour at 37° C., 31 μM, 94 μM and 156 μM. How it is done: as §1, §2

Like-named read-outs stand apart in the source and are kept apart here. Bridge positions count the residues as written; N and C are the ends. Ends that are not written are not given here. Peptide text beside a SMILES is read from it.

For `CC(C)C[C@H](NC(=O)CNC(=O)CNC(=O)[C@@H](N)CCCNC(=N)N)C(=O)N[C@H]1CSSC[C@@H](C(=O)N[C@H](C(=O)NCC(=O)N[C@@H](CCCNC(=N)N)C(N)=O)C(C)C)NC(=O)[C@H](C(C)C)NC(=O)[C@@H]2CSSC[C@H](NC(=O)[C@H](Cc3ccc(O)cc3)NC1=O)C(=O)N[C@@H](CCCNC(=N)N)C(=O)NCC(=O)N[C@@H](CCCNC(=N)N)C(=O)N[C@@H](Cc1ccccc1)C(=O)N2` [IB-367] (H-RGGLCYCRGRFCVCVGR-NH2; disulfide 5-14, 7-12), in series [1], the “ACN (%)” value is recorded as 45%. In addition, the HC50 in series [2] stood at 7 µM. Further, the “growth of saliva microorganisms (CFU per ml versus incubation time)” value in series [3] was “inhibited but proliferation is resumed after 30 minutes”.
On to `CC[C@H](C)[C@H](NC(=O)[C@H](CCC(=O)O)NC(=O)[C@H](CCC(=O)O)NC(=O)[C@H](Cc1ccccc1)NC(=O)[C@H](CC(=O)O)NC(=O)CNC(=O)[C@H](CC(N)=O)NC(=O)CNC(=O)CNC(=O)CNC(=O)CNC(=O)[C@@H]1CCCN1C(=O)[C@H](CCCNC(=N)N)NC(=O)[C@@H]1CCCN1C(=O)[C@H](N)Cc1ccccc1)C(=O)N1CCC[C@H]1C(=O)N[C@@H](CCC(=O)O)C(=O)N[C@@H](CCC(=O)O)C(=O)N[C@@H](Cc1ccc(O)cc1)C(=O)N[C@@H](CC(C)C)C(=O)O` [bivalirudin], for which the hemolytic activity result in series [4] was “merely a “background level” activity”.
GIGKFLKKAKKFGKAFVKILKK-NH2 [MSI-78]: the HC50 in series [2] (red blood cells (RBC)) is 45 µM. Besides, the hemolytic activity entry in series [4] is on record as “high degree of hemolysis”.
